Experiments:
[1] = Tmax in dog at 0.5 mg/kg, po; type: ADME, organism-based, Canis lupus familiaris; design: dose 0.5 mg/kg, route oral; details: in vivo
[2] = Volume of distribution in dog at 0.5 mg/kg, iv and 1 mg/kg, po; type: ADME, organism-based, Canis lupus familiaris; details: in vivo
Canis familiaris [3] = test: fCmax in dog at 0.5 mg/kg, po; type: ADME, organism-based, Canis lupus familiaris; design: dose 0.5 mg/kg, route oral; details: in vivo
[4] = Intrinsic clearance in rat liver microsomes assessed per mg of protein; type: ADME, Microsome
[5] = Absorption in rat at 1 mg/kg, iv and 10 mg/kg, po; type: ADME, organism-based; details: in vivo, read-out: Activity
[6] = Apparent permeability from basolateral to apical side of human Caco2 cells; details: Caco-2
[7] = Plasma protein binding in dog at 0.5 mg/kg, iv and 1 mg/kg, po; type: ADME, organism-based, Canis lupus familiaris; details: read-out: PPB (converted)
[8] = Apparent permeability from apical to basolateral side of human Caco2 cells; details: Caco-2
[9] = Plasma protein binding in rat at 1 mg/kg, iv and 10 mg/kg, po; type: ADME, organism-based; details: read-out: PPB (converted)
[10] = Tmax in rat at 10 mg/kg, po; type: ADME, organism-based; design: dose 10 mg/kg, route oral; details: in vivo
[11] = Intrinsic clearance in human liver microsomes assessed per mg of protein; type: ADME, Microsome
[12] = Oral bioavailability in rat at 10 mg/kg; type: ADME, organism-based; details: in vivo
[13] = Half life in rat at 1 mg/kg, iv and 10 mg/kg, po; type: ADME, organism-based; details: in vivo
Canis familiaris [14] = test: Unbound clearance in dog at 0.5 mg/kg, iv and 1 mg/kg, po; type: ADME, organism-based, Canis lupus familiaris; details: in vivo
[15] = Absorption in dog at 0.5 mg/kg, iv and 1 mg/kg, po; type: ADME, organism-based, Canis lupus familiaris; details: in vivo, read-out: Activity
[16] = Clearance in rat at 1 mg/kg, iv and 10 mg/kg, po; type: ADME, organism-based; details: in vivo
[17] = Half life in dog at 0.5 mg/kg, iv and 1 mg/kg, po; type: ADME, organism-based, Canis lupus familiaris; details: in vivo
[18] = Oral bioavailability in dog at 1 mg/kg; type: ADME, organism-based, Canis lupus familiaris; details: in vivo
Rattus norvegicus [19] = test: fCmax in rat at 10 mg/kg, po; type: ADME, organism-based; design: dose 10 mg/kg, route oral; details: in vivo
[20] = Intrinsic clearance in dog liver microsomes assessed per mg of protein; type: ADME, Canis lupus familiaris, Microsome
Rattus norvegicus [21] = test: Unbound clearance in rat at 1 mg/kg, iv and 10 mg/kg, po; type: ADME, organism-based; details: in vivo

- Tmax [1]: 1.5 h
- Vd [2]: 4.3 L/kg
- Cmax_unbound (Canis familiaris [3]): 80 nM
- microsomal CLint [4]: < 6 µL/min/mg
- Fa [5]: 20%
- Papp B→A [6]: 12 ×10⁻⁶ cm/s
- fraction unbound [7]: 0.4
- Papp A→B [8]: < 1 ×10⁻⁶ cm/s
- fraction unbound [9]: 0.54
- Tmax [10]: 2 h
- microsomal CLint [11]: 49 µL/min/mg
- bioavailability [12]: 6%
- half-life [13]: 2.3 h
- CL (Canis familiaris [14]): 53 mL/min/kg
- Fa [15]: 70%
- clearance [16]: 74 mL/min/kg
- half-life [17]: 2.3 h
- bioavailability [18]: 42%
- Cmax_unbound (Rattus norvegicus [19]): 73 nM
- microsomal CLint [20]: < 9 µL/min/mg
- CL (Rattus norvegicus [21]): 137 mL/min/kg
Compound: Cc1nnc(C(C)C)n1[C@@H]1C[C@H]2CC[C@@H](C1)N2CC[C@H](NC(=O)C1CCC(F)(F)CC1)c1ccccc1 [MARAVIROC]

Reference: ChEMBL document CHEMBL1649066, “An imidazopiperidine series of CCR5 antagonists for the treatment of HIV: the discovery of N-{(1S)-1-(3-fluorophenyl)-3-[(3-endo)-3-(5-isobutyryl-2-methyl-4,5,6,7-tetrahydro-1H-imidazo[4,5-c]pyridin-1-yl)-8-azabicyclo[3.2.1]oct-8-yl]propyl}acetamide (PF-232798)” (J Med Chem, 2011)
